Assay results as given in PubChem BioAssay (NCI).
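Method: 48-hour compound exposure of cells in 96-well plates, five concentrations, linear interpolation of endpoints. TGI denotes the concentration required for complete inhibition of growth.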

What was measured:
Assay in all cases: NCI tumour cell line growth inhibition, 48 h
A498 renal = test system: A498 renal
CCRF-CEM leukemia = test system: CCRF-CEM leukemia
OVCAR-4 ovarian = test system: OVCAR-4 ovarian
M19-MEL melanoma = test system: M19-MEL melanoma
SF-295 CNS = test system: SF-295 CNS
SK-OV-3 ovarian = test system: SK-OV-3 ovarian
KM20L2 colon = test system: KM20L2 colon
UO-31 renal = test system: UO-31 renal
SNB-78 CNS = test system: SNB-78 CNS
LXFL 529 NSCLC = test system: LXFL 529 NSCLC
NCI-H23 lung = test system: NCI-H23 lung
786-0 renal = test system: 786-0 renal
RPMI-8226 leukemia = test system: RPMI-8226 leukemia
COLO 205 colon = test system: COLO 205 colon
UACC-257 melanoma = test system: UACC-257 melanoma
K-562 leukemia = test system: K-562 leukemia
SK-MEL-2 melanoma = test system: SK-MEL-2 melanoma
RXF-631 renal = test system: RXF-631 renal
SNB-75 CNS = test system: SNB-75 CNS
OVCAR-5 ovarian = test system: OVCAR-5 ovarian
HOP-92 NSCLC = test system: HOP-92 NSCLC
HCT-15 colon = test system: HCT-15 colon
XF 498 CNS = test system: XF 498 CNS
HOP-62 NSCLC = test system: HOP-62 NSCLC
MALME-3M melanoma = test system: MALME-3M melanoma
DLD-1 colon = test system: DLD-1 colon
NCI-H226 lung = test system: NCI-H226 lung
SN12C renal = test system: SN12C renal
HT29 colon = test system: HT29 colon
KM12 colon = test system: KM12 colon
IGROV1 ovarian = test system: IGROV1 ovarian
EKVX NSCLC = test system: EKVX NSCLC
SK-MEL-5 melanoma = test system: SK-MEL-5 melanoma
OVCAR-3 ovarian = test system: OVCAR-3 ovarian
OVCAR-8 ovarian = test system: OVCAR-8 ovarian
CAKI-1 renal = test system: CAKI-1 renal
SF-539 CNS = test system: SF-539 CNS
M14 melanoma = test system: M14 melanoma
NCI-H460 lung = test system: NCI-H460 lung
HCC-2998 colon = test system: HCC-2998 colon
MOLT-4 leukemia = test system: MOLT-4 leukemia
TK-10 renal = test system: TK-10 renal
U251 CNS = test system: U251 CNS
ACHN renal = test system: ACHN renal
HL-60(TB) leukemia = test system: HL-60(TB) leukemia
SR leukemia = test system: SR leukemia
DMS 273 small cell lung = test system: DMS 273 small cell lung
SW-620 colon = test system: SW-620 colon
HOP-18 NSCLC = test system: HOP-18 NSCLC
LOX IMVI melanoma = test system: LOX IMVI melanoma
HCT-116 colon = test system: HCT-116 colon
SN12K1 renal = test system: SN12K1 renal
RXF 393 renal = test system: RXF 393 renal
A549 NSCLC = test system: A549 NSCLC
P388/ADR leukemia = test system: P388/ADR leukemia
DMS 114 small cell lung = test system: DMS 114 small cell lung
P388 leukemia = test system: P388 leukemia
MCF7 breast = test system: MCF7 breast
SNB-19 CNS = test system: SNB-19 CNS
SF-268 CNS = test system: SF-268 CNS
SK-MEL-28 melanoma = test system: SK-MEL-28 melanoma
NCI/ADR-RES ovarian = test system: NCI/ADR-RES ovarian
UACC-62 melanoma = test system: UACC-62 melanoma
NCI-H522 lung = test system: NCI-H522 lung

With `COC(=O)C1=C(c2cc(OC)c(OC)c(OC)c2)O[C@H](c2ccc3c(c2)OCO3)[C@H]1COC(C)=O` the TGI (A498 renal) was 48.6 µM, the TGI (CCRF-CEM leukemia) was over 100 µM and the TGI (OVCAR-4 ovarian) was over 100 µM. For the same compound, the TGI (M19-MEL melanoma) was over 100 µM, the TGI (SF-295 CNS) was 41 µM and the TGI (SK-OV-3 ovarian) was 52.1 µM. For the same compound, the TGI (KM20L2 colon) was over 100 µM, the TGI (UO-31 renal) was 80 µM and the TGI (SNB-78 CNS) was over 100 µM. For the same compound, the TGI (LXFL 529 NSCLC) was 69.2 µM, the TGI (NCI-H23 lung) was 57.1 µM and the TGI (786-0 renal) was 78.4 µM. For the same compound, the TGI (RPMI-8226 leukemia) was over 100 µM, the TGI (COLO 205 colon) was 26.3 µM and the TGI (UACC-257 melanoma) was over 100 µM. For the same compound, the TGI (K-562 leukemia) was 91.8 µM, the TGI (SK-MEL-2 melanoma) was over 100 µM and the TGI (RXF-631 renal) was over 100 µM. It also gave a TGI (SNB-75 CNS) of over 100 µM, a TGI (OVCAR-5 ovarian) of over 100 µM and a TGI (HOP-92 NSCLC) of 54.4 µM. For the same compound, the TGI (HCT-15 colon) was over 100 µM, the TGI (XF 498 CNS) was over 100 µM and the TGI (HOP-62 NSCLC) was over 100 µM. It also gave a TGI (MALME-3M melanoma) of over 100 µM, a TGI (DLD-1 colon) of over 100 µM and a TGI (NCI-H226 lung) of over 100 µM. For the same compound, the TGI (SN12C renal) was 96.2 µM, the TGI (HT29 colon) was 95.7 µM and the TGI (KM12 colon) was over 100 µM. For the same compound, the TGI (IGROV1 ovarian) was over 100 µM, the TGI (EKVX NSCLC) was over 100 µM and the TGI (SK-MEL-5 melanoma) was 29.8 µM. For the same compound, the TGI (OVCAR-3 ovarian) was over 100 µM, the TGI (OVCAR-8 ovarian) was over 100 µM and the TGI (CAKI-1 renal) was over 100 µM. The TGI (SF-539 CNS) was 91.1 µM, the TGI (M14 melanoma) was 43.3 µM and the TGI (NCI-H460 lung) was over 100 µM. The TGI (HCC-2998 colon) was over 100 µM, the TGI (MOLT-4 leukemia) was 74 µM and the TGI (TK-10 renal) was over 100 µM. It also gave a TGI (U251 CNS) of 63.5 µM, a TGI (ACHN renal) of 92.1 µM and a TGI (HL-60(TB) leukemia) of 40.3 µM. For the same compound, the TGI (SR leukemia) was 72.6 µM, the TGI (DMS 273 small cell lung) was over 100 µM and the TGI (SW-620 colon) was over 100 µM. It also gave a TGI (HOP-18 NSCLC) of over 100 µM and a TGI (LOX IMVI melanoma) of over 100 µM.
With `CC1(C)N=C(N)N=C(N)N1c1ccc(OCCCOc2ccccc2)c(Cl)c1` the TGI (A498 renal) was 30.2 µM, the TGI (CCRF-CEM leukemia) was 29.7 µM and the TGI (OVCAR-4 ovarian) was 14.2 µM. It also gave a TGI (M19-MEL melanoma) of 15 µM, a TGI (SF-295 CNS) of over 43.7 µM and a TGI (SK-OV-3 ovarian) of 35.1 µM. For the same compound, the TGI (HCT-116 colon) was 13.5 µM, the TGI (KM20L2 colon) was 11.3 µM and the TGI (UO-31 renal) was over 23.8 µM. The TGI (SNB-78 CNS) was 18 µM, the TGI (NCI-H23 lung) was 10.7 µM and the TGI (SN12K1 renal) was 11.2 µM. For the same compound, the TGI (RPMI-8226 leukemia) was 28.9 µM, the TGI (COLO 205 colon) was 15.1 µM and the TGI (UACC-257 melanoma) was 15.1 µM. For the same compound, the TGI (RXF 393 renal) was 22.8 µM, the TGI (K-562 leukemia) was over 42.8 µM and the TGI (SK-MEL-2 melanoma) was 16.9 µM. The TGI (SNB-75 CNS) was 17.3 µM, the TGI (OVCAR-5 ovarian) was 10.4 µM and the TGI (HOP-92 NSCLC) was 3.83 µM. For the same compound, the TGI (HCT-15 colon) was over 100 µM, the TGI (A549 NSCLC) was over 100 µM and the TGI (P388/ADR leukemia) was over 100 µM. It also gave a TGI (DMS 114 small cell lung) of 14.3 µM, a TGI (MALME-3M melanoma) of 14.5 µM and a TGI (DLD-1 colon) of over 100 µM. The TGI (NCI-H226 lung) was 15.4 µM, the TGI (SN12C renal) was 14.9 µM and the TGI (HT29 colon) was 10.5 µM. The TGI (KM12 colon) was 12.3 µM, the TGI (P388 leukemia) was 10.3 µM and the TGI (IGROV1 ovarian) was 7.52 µM. For the same compound, the TGI (EKVX NSCLC) was 14.4 µM, the TGI (MCF7 breast) was 14.8 µM and the TGI (SK-MEL-5 melanoma) was 3 µM. The TGI (OVCAR-3 ovarian) was 14 µM, the TGI (OVCAR-8 ovarian) was 14.5 µM and the TGI (SNB-19 CNS) was 1.06 µM. For the same compound, the TGI (CAKI-1 renal) was 44.3 µM, the TGI (SF-539 CNS) was 15.5 µM and the TGI (NCI-H460 lung) was 12.4 µM. It also gave a TGI (HCC-2998 colon) of 13.1 µM, a TGI (MOLT-4 leukemia) of 16.8 µM and a TGI (SF-268 CNS) of 13.5 µM. It also gave a TGI (U251 CNS) of 11.2 µM, a TGI (SK-MEL-28 melanoma) of 9.16 µM and a TGI (DMS 273 small cell lung) of 1.15 µM. It also gave a TGI (NCI/ADR-RES ovarian) of over 100 µM, a TGI (UACC-62 melanoma) of 18.3 µM and a TGI (SW-620 colon) of 13.7 µM. For the same compound, the TGI (HOP-18 NSCLC) was 17.6 µM, the TGI (NCI-H522 lung) was 8.39 µM and the TGI (LOX IMVI melanoma) was 13.7 µM.
`CC1=NN(C(=O)c2cc(Cl)cc([N+](=O)[O-])c2)C(=O)C1N=Nc1ccccc1C(=O)O` (centres undefined) gave a TGI (A498 renal) of over 100 µM, a TGI (CCRF-CEM leukemia) of over 100 µM and a TGI (M19-MEL melanoma) of over 100 µM. The TGI (SF-295 CNS) was over 100 µM, the TGI (SK-OV-3 ovarian) was over 100 µM and the TGI (HCT-116 colon) was over 100 µM. For the same compound, the TGI (UO-31 renal) was over 100 µM, the TGI (SNB-78 CNS) was over 100 µM and the TGI (LXFL 529 NSCLC) was over 100 µM. For the same compound, the TGI (NCI-H23 lung) was over 100 µM, the TGI (786-0 renal) was over 100 µM and the TGI (RPMI-8226 leukemia) was over 100 µM. For the same compound, the TGI (COLO 205 colon) was over 100 µM, the TGI (UACC-257 melanoma) was over 100 µM and the TGI (RXF 393 renal) was over 100 µM. It also gave a TGI (K-562 leukemia) of over 100 µM, a TGI (SK-MEL-2 melanoma) of over 100 µM and a TGI (RXF-631 renal) of over 100 µM. It also gave a TGI (SNB-75 CNS) of over 100 µM, a TGI (OVCAR-5 ovarian) of over 100 µM and a TGI (A549 NSCLC) of over 100 µM. It also gave a TGI (MALME-3M melanoma) of over 100 µM, a TGI (DLD-1 colon) of over 100 µM and a TGI (NCI-H226 lung) of over 100 µM. It also gave a TGI (SN12C renal) of over 100 µM, a TGI (HT29 colon) of over 100 µM and a TGI (KM12 colon) of over 100 µM. For the same compound, the TGI (IGROV1 ovarian) was over 100 µM, the TGI (EKVX NSCLC) was over 100 µM and the TGI (SK-MEL-5 melanoma) was over 100 µM. For the same compound, the TGI (OVCAR-3 ovarian) was over 100 µM, the TGI (OVCAR-8 ovarian) was over 100 µM and the TGI (SNB-19 CNS) was over 100 µM. For the same compound, the TGI (CAKI-1 renal) was over 100 µM, the TGI (SF-539 CNS) was over 100 µM and the TGI (NCI-H460 lung) was over 100 µM. The TGI (HCC-2998 colon) was over 100 µM, the TGI (MOLT-4 leukemia) was over 100 µM and the TGI (SF-268 CNS) was over 100 µM. It also gave a TGI (TK-10 renal) of over 100 µM, a TGI (U251 CNS) of over 100 µM and a TGI (SK-MEL-28 melanoma) of over 100 µM. For the same compound, the TGI (ACHN renal) was over 100 µM, the TGI (HL-60(TB) leukemia) was over 100 µM and the TGI (SR leukemia) was over 100 µM. It also gave a TGI (DMS 273 small cell lung) of over 100 µM, a TGI (UACC-62 melanoma) of over 100 µM and a TGI (SW-620 colon) of over 100 µM. It also gave a TGI (HOP-18 NSCLC) of over 100 µM and a TGI (NCI-H522 lung) of over 100 µM.
